# Assay results: US8791144B2, “Substituted N-phenyl-1-(4-Pyridinyl)-1H-pyrazol-3-amines” (Janssen Pharmaceutica NV, priority 2009, dated 2014)
# Assays:
# hα7-wt nAChR [1] = biological target: T1, hα7-wt nAChR (Homo sapiens, UniProt P36544); assay: Ca2+ flux imaging (FDSS): potentiation of the choline response; format: cell-based; conditions: Ca2+ assay as described in D.1, potentiation of choline response, hα7-wt nAChR; for EC50: read-out: Potency (pEC50) (converted)
# Outline: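 Cells expressing human α7-wt nAChR loaded with fluo-4AM (2 μM final) up to 120 min; HBSS/10 mM HEPES/5 mM CaCl2/0.1% BSA buffer. Compound (0.01–30 μM) applied up to 10 min before 100 μM choline; peak fluorescence measured on FDSS relative to choline alone (100%). EC50 from sigmoidal curves.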
# hα7-wt nAChR [2] = biological target: T1, hα7-wt nAChR; assay: Patch-clamp current recording (whole-cell voltage clamp), potentiation of choline current and PAM type; format: cell-based; parameters: key: Type 0 compounds minimally enhance the effect size of the current elicited by 1 mM choline.; Type 1 compounds enhance the effect size of the current elicited by 1 mM choline but minimally alter the kinetics of the receptor.; Type 2 compounds enhance the effect size of the current elicited by 1 mM choline while reducing the rate and/or the extent of desensitization.; Type 3 compounds enhance the effect size of the current elicited by 1 mM choline. When tested at higher concentrations up to 10 μM they completely inhibit desensitization, in particular a 1 mM choline application of 250 milliseconds.; Type 4 compounds allow for an initial desensitization of the receptor followed by a re-opening of the receptor during agonist application; conditions: hα7-wt nAChR-expressing GH4C1 cells, 1 mM choline
# Outline: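 GH4C1 cells stably expressing human wild-type α7 nAChR, whole-cell voltage clamp at −70 mV with rapid application (<100 ms); compound co-applied with 1 mM choline. Peak current potentiation expressed relative to choline-alone response (=100%); compounds reaching ≥200% assigned PAM type 0–4 by current kinetics and desensitization.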
# T1 sequence (P36544 23-502): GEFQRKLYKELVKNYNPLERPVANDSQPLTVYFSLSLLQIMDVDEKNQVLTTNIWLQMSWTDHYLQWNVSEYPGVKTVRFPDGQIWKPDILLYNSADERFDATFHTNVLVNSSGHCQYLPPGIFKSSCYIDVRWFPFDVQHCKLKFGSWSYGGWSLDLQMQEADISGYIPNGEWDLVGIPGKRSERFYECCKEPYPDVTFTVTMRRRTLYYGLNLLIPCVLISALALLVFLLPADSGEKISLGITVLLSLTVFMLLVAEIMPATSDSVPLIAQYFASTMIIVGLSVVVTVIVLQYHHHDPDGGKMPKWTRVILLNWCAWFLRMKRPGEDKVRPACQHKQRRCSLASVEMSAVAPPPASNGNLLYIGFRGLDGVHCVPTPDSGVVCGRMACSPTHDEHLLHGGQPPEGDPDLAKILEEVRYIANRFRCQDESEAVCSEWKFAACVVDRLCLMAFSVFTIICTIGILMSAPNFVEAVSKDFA
Compound,EC50 (hα7-wt nAChR [1]),PAM type (hα7-wt nAChR [2]),melting point,Emax (hα7-wt nAChR [1]; read-out: % Efficacy)
"CNC(=O)Cc1cc(Nc2cc(Cl)cc(OC)c2)nn1-c1ccnc(C)c1 [Compound 72, 3-[(3-chloro-5-methoxyphenyl)amino]-N-methyl-1-(2-methyl-4-pyridinyl)-1H-pyrazole-5-acetamide]",1820 nM,3,215 °C,
"Cc1cc(-n2nc(Nc3cccc(OC(F)(F)F)c3)cc2CC(=O)NCC2CC2)cc(C)n1 [Compound 120, N-(cyclopropylmethyl)-1-(2,6-dimethyl-4-pyridinyl)-3-[[3-(trifluoromethoxy)phenyl]amino]-1H-pyrazole-5-acetamide]",141 nM,2,199.4 °C,
"CNC(=O)Cc1cc(Nc2cccc(Cl)c2F)nn1-c1ccnc(C)c1 [Compound 71, 3-[(3-chloro-2-fluorophenyl)amino]-N-methyl-1-(2-methyl-4-pyridinyl)-1H-pyrazole-5-acetamide]",2240 nM,2,229.7 °C,
"CC[C@@H](O)Cc1cc(Nc2ccc(F)c(F)c2)nn1-c1ccnc(C)c1 [Compound 10, (alphaR)-3-[(3,4-difluorophenyl)amino]-alpha-ethyl-1-(2-methyl-4-pyridinyl)-1H-pyrazole-5-ethanol]",832 nM,2,164.7 °C,
"CC[C@H](O)Cc1cc(Nc2ccc(F)c(F)c2)nn1-c1ccnc(C)c1 [Compound 17, (alphaS)-3-[(3,4-difluorophenyl)amino]-alpha-ethyl-1-(2-methyl-4-pyridinyl)-1H-pyrazole-5-ethanol]",1660 nM,2,163.2 °C,880%
"CC[C@H](O)Cc1cc(Nc2cc(OC)cc(C(F)(F)F)c2)nn1-c1ccnc(C)c1 [Compound 39, (alphaS)-alpha-ethyl-3-[[3-methoxy-5-(trifluoromethyl)phenyl]amino]-1-(2-methyl-4-pyridinyl)-1H-pyrazole-5-ethanol]",933 nM,4,129.2 °C,
"COc1cc(Nc2cc(CCC(=O)N(C)C)n(-c3ccnc(C)c3)n2)cc(C(F)(F)F)c1 [Compound 9, 3-[[3-methoxy-5-(trifluoromethyl)phenyl]amino]-N,N-dimethyl-1-(2-methyl-4-pyridinyl)-1H-pyrazole-5-propanamide]",170 nM,4,146.4 °C,
"COc1cc(Nc2cc(CC(=O)NC3CC3)n(-c3ccnc(C)c3)n2)cc(C(F)(F)F)c1 [Compound 46, N-cyclopropyl-3-[[3-methoxy-5-(trifluoromethyl)phenyl]amino]-1-(2-methyl-4-pyridinyl)-1H-pyrazole-5-acetamide]",234 nM,4,251.3 °C,
"Cc1cc(-n2nc(Nc3cccc(Cl)c3F)cc2CC(=O)NC2CC2)cc(C)n1 [Compound 78, 3-[(3-chloro-2-fluorophenyl)amino]-N-cyclopropyl-1-(2,6-dimethyl-4-pyridinyl)-1H-pyrazole-5-acetamide]",407 nM,2,222.9 °C,
